According to paper PMC7617969, “Carboxylic Acid Bioisosteres Boost Nurr1 Agonist Selectivity” (Journal of medicinal chemistry, 2025):
“And” between values parts separate entries of the source, which are not always exact repeats. Equal values may be shown once.

Columns and labels:
recombinant Nurr1 LBD = target: T1, recombinant Nurr1 LBD (Homo sapiens, UniProt P43354); assay: Isothermal titration calorimetry (ITC); assay type: binding; details: 25 °C
T1 construct: Nurr1 LBD protein (15 μM, expressed as described previously[18]); made in house
T1 sequence (P43354 360-595 limits assumed): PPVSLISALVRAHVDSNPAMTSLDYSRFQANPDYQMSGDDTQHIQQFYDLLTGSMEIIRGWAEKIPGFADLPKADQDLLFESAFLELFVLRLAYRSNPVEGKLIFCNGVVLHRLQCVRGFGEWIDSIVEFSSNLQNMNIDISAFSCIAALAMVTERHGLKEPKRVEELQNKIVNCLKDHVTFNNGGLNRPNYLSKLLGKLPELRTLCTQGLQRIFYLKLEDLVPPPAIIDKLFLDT
Description: ITC experiments were conducted on an Affinity ITC instrument (TA Instruments, New Castle, DE, USA) at 25 °C with a stirring rate of 75 rpm. Nurr1 LBD protein (15 μM, expressed as described previously[18]) in buffer (20 mM Tris, pH 7.5, 100 mM NaCl, 5% glycerol) containing 5% DMSO was titrated with 32 (100 μM in the same buffer containing […]) in 21 injections (1 × 1 µL and 20 × 4 μL) with an injection interval of 120 s. As control experiments, the test compound was titrated to the buffer, and the buffer was titrated to the Nurr1 LBD protein under otherwise identical conditions. The heats of the compound−protein titration were analyzed using NanoAnalyze software (version 3.11.0, TA Instruments) with independent binding model.

DHODH = target: T2, DHODH (Homo sapiens, UniProt Q02127); assay: DHODH inhibition colorimetric assay on recombinant human protein; assay type: biochemical; details: recombinant human DHODH, colorimetric; mean ± S.E.M., n ≥ 3; read-out: IC50 (DHODH)
T2 construct: using an N-terminally truncated recombinant DHODH enzyme as described previously[20]
T2 sequence (Q02127 31-395): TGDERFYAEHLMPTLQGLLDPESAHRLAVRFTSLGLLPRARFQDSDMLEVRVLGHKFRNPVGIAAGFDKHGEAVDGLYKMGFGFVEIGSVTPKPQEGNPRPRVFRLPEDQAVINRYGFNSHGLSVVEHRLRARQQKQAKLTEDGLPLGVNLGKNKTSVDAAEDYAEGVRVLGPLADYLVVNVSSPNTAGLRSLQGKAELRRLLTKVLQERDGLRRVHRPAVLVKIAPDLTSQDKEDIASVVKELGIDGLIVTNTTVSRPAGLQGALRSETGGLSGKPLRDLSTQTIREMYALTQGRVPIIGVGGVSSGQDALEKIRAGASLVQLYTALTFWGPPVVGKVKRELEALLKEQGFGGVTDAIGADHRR

Nur77 = target: T3, Nur77 (Homo sapiens, UniProt P22736); assay: Gal4-Nur77 hybrid reporter gene assay; assay type: cell-based
T3 construct: expressed in transfected cells; host or cells: HEK293T
T3 sequence (P22736 360-595 limits assumed): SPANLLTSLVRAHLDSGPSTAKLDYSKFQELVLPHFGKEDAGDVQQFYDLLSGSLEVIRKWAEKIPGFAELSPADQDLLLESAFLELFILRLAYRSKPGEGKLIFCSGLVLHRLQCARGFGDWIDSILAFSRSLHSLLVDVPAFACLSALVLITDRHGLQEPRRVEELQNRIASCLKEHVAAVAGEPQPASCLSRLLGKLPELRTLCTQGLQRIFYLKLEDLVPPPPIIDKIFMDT
Description: (§1) NR modulation was determined in Gal4 hybrid reporter gene assays in HEK293T cells (German Collection of Microorganisms and Cell Culture GmbH, DSMZ) using pFR-Luc (Stratagene, La Jolla, CA, USA; reporter), pRL-SV40 (Promega, Madison, WI, USA; internal control) and pFA-CMV-hNR-LBD[47],[48] plasmids coding for the hinge region and ligand binding domain of the canonical isoform of the respective NR. Cells were cultured in Dulbecco’s modified Eagle’s medium (DMEM), high glucose supplemented with 10% fetal calf serum (FCS), sodium pyruvate (1 mM), penicillin (100 U/mL), and streptomycin (100 μg/mL) at 37°C and 5% CO2 and seeded in 96-well plates (3×10^4 cells/well). […] Five hours after transfection, cells were incubated with the test compounds in Opti-MEM supplemented with penicillin (100 U/mL), streptomycin (100 μg/mL) and 0.1% DMSO for 16 h before luciferase activity was measured using the Dual-Glo Luciferase Assay System (Promega) according to the manufacturer’s protocol on a Tecan Spark luminometer (Tecan Deutschland GmbH, Crailsheim, Germany). Firefly luminescence was divided by Renilla luminescence and multiplied by 1000 resulting in relative light units (RLU) to normalize for transfection efficiency and cell growth. […]

NOR1 = target: T4, NOR1 (Homo sapiens, UniProt Q92570); assay: Gal4-NOR1 hybrid reporter gene assay; assay type: cell-based
T4 construct: expressed in transfected cells; host or cells: HEK293T
T4 sequence (Q92570 394-623 limits assumed): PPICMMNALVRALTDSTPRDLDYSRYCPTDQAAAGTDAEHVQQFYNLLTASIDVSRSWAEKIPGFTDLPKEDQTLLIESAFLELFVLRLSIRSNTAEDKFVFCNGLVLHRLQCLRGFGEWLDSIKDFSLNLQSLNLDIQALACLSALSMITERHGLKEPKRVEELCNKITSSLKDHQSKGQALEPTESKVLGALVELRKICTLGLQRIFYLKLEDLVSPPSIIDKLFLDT
Description: as §1

RXR = assay: Gal4 hybrid reporter gene assay, selectivity panel; assay type: cell-based, human; details: 1 µM; relative activation compared to reference agonists
Description: (§2) NR modulation was determined in Gal4 hybrid reporter gene assays in HEK293T cells (German Collection of Microorganisms and Cell Culture GmbH, DSMZ) using pFR-Luc (Stratagene, La Jolla, CA, USA; reporter), pRL-SV40 (Promega, Madison, WI, USA; internal control) and pFA-CMV-hNR-LBD[47],[48] plasmids coding for the hinge region and ligand binding domain of the canonical isoform of the respective NR. Cells were cultured in Dulbecco’s modified Eagle’s medium (DMEM), high glucose supplemented with 10% fetal calf serum (FCS), sodium pyruvate (1 mM), penicillin (100 U/mL), and streptomycin (100 μg/mL) at 37°C and 5% CO2 and seeded in 96-well plates (3×10^4 cells/well). After 24 h, medium was changed to Opti-MEM without supplements and cells were transiently transfected using Lipofectamine LTX reagent (Invitrogen, Carlsbad, CA, USA) according to the manufacturer’s protocol. Five hours after transfection, cells were incubated with the test compounds in Opti-MEM supplemented with penicillin (100 U/mL), streptomycin (100 μg/mL) and 0.1% DMSO for 16 h before luciferase activity was measured using the Dual-Glo Luciferase Assay System (Promega) according to the manufacturer’s protocol on a Tecan Spark luminometer (Tecan Deutschland GmbH, Crailsheim, Germany). Firefly luminescence was divided by Renilla luminescence and multiplied by 1000 resulting in relative light units (RLU) to normalize for transfection efficiency and cell growth. Fold activation was obtained by dividing the mean RLU of test compound by the mean RLU of the untreated control. All samples were tested in at least three biologically independent experiments in duplicates. For dose-response curve fitting and calculation of EC50 values, the equation “[Agonist] vs. response -- Variable slope (four parameters)” was used in GraphPad Prism (version 7.00, GraphPad Software, La Jolla, CA, USA).

PPAR = assay: Gal4 hybrid reporter gene assay, selectivity panel; assay type: cell-based, human; details: 1 µM; relative activation compared to reference agonists
Description: as §2

RAR = assay: Gal4 hybrid reporter gene assay, selectivity panel; assay type: cell-based, human; details: 1 µM; relative activation compared to reference agonists
Description: as §2

THR = assay: Gal4 hybrid reporter gene assay, selectivity panel; assay type: cell-based, human; details: 1 µM; relative activation compared to reference agonists
Description: as §2

Nurr1 = target: T5, Nurr1 (Homo sapiens, UniProt P43354); assay: Gal4-Nurr1 hybrid reporter gene assay; assay type: cell-based
T5 construct: expressed in transfected cells; host or cells: HEK293T
T5 sequence (P43354 360-595 limits assumed): as the sequence (P43354 360-595 limits assumed) above

[1] = test system: N27 rat dopaminergic neural cells; assay: Nurr1-regulated gene expression (qPCR); assay type: cell-based; details: N27 cells, 0.3, 1 or 3 μM, 21 h, referenced to GAPDH
Nurr1 LBD homodimer = target: T6, Nurr1 LBD homodimer (Homo sapiens, UniProt P43354); assay: Nurr1 homodimerization assay (HTRF); assay type: biochemical; details: Tb3+-cryptate labeled Nurr1 LBD and sGFP labeled Nurr1 LBD
T6 construct: Biotinylated recombinant Nurr1 LBD protein and sGFP-Nurr1 LBD protein (FRET acceptor) were expressed and purified as described previously[28]; sGFP-Nurr1 LBD protein (FRET acceptor) were expressed and purified as described previously[28]; made in house
T6 sequence (P43354 360-595 limits assumed): as above
Description: Modulation of Nurr1 LBD homodimerization by 32 was studied in a homogenous time-resolved fluorescence resonance energy transfer (HTRF) based assay. Biotinylated recombinant Nurr1 LBD protein and sGFP-Nurr1 LBD protein (FRET acceptor) were expressed and purified as described previously. […] Free sGFP was added to keep the total GFP content stable at 0.5 μM. Assay solutions were prepared in HTRF assay buffer (25 mM HEPES pH 7.5, 10% (m/v) glycerol, 5 mM DTT) supplemented with 0.1% (w/v) CHAPS as well as 1% DMSO with 32 at fixed concentrations or DMSO alone as negative control (apo). The FRET donor complex formed from biotinylated Nurr1 LBD (final concentration 0.188 nM) and Tb-SA (0.375 nM) was kept constant while the concentration of sGFP-labeled protein was varied. Samples were equilibrated at RT for 2 h before fluorescence intensities (FI) after excitation at 340 nm were recorded at 520 nm for sGFP acceptor fluorescence and 620 nm for Tb-SA donor fluorescence on a Tecan SPARK plate reader (Tecan Group Ltd.). FI520 nm was divided by FI620 nm and multiplied with 10,000 to give a dimensionless HTRF signal.

COc1cccc(-c2ccc(NC(=O)C3=C(c4nn[nH]n4)CCC3)c(F)c2)c1 [compound 32, N-{3-Fluoro-3’-methoxy-[1,1'-biphenyl]-4-yl}-2-(2H-tetrazol-5-yl)cyclopent-1-ene-1-carboxamide]
Kd (recombinant Nurr1 LBD): 200 nM
IC50 (DHODH): 10 ± 2 µM
EC50 (Nur77): 160 ± 30 nM
fold activation (Nur77) (Nur77): 1.9 fold
EC50 (NOR1): 120 ± 10 nM
fold activation (NOR1) (NOR1): 1.8 fold
activity on RXR (RXR): no activity
activity on PPAR (PPAR): no activity
activity on RAR (RAR): no activity
activity on THR (THR): no activity
Nurr1 preference/selectivity over DHODH (Nurr1): > 100 fold
EC50 (Nurr1; Gal4-Nurr1 hybrid reporter gene assay, HEK293T cells, mean ± S.E.M., n ≥ 3): 90 ± 10 nM
max. activation (Nurr1) (Nurr1; Gal4-Nurr1 hybrid reporter gene assay, fold activation vs untreated control): 2.5 fold and 2.5±0.1 fold
selectivity index DHODH/Nurr1 (Nurr1; IC50(DHODH) / EC50(Nurr1)): 110
efficacy_NR4A2 (Nurr1; supplementary csv, max. activation in %): 250%
BDNF mRNA expression [1]: enhanced expression
BIRC5 mRNA expression [1]: robust induction
CCND2 mRNA expression [1]: enhanced expression
CRMP4 mRNA expression [1]: enhanced expression
FLRT2 mRNA expression [1]: enhanced expression
SOD2 mRNA expression [1]: robust induction
Sesn3 mRNA expression [1]: robust induction
TH mRNA expression [1]: enhanced the expression
XIAP mRNA expression [1]: robust induction
impact on Nurr1 dimer formation (Nurr1 LBD homodimer): robustly diminished Nurr1 dimer formation
